# Test system: Oryzias latipes var.
# Experiment: Harm to fish grown in treated water
# Type: in vivo
# Conditions: 10 males and 10 females grown in aqueous solution, 1×10^−2 g/l; one week
# Method: Forty Oryzias latipes var. (20 males and 20 females) were divided into two groups (each group: 10 males and 10 females). One group was grown in an aqueous solution of the coloring matter xylindein (1×10^−2 g/l) and the other was grown in water in the presence of wood on which mycelia of Chlorociboria aeruginosa developed and which was rotten and stained blue.
smiles,measurement,value
CCC[C@H]1Cc2c(c(O)c3c(=O)cc4oc5c6c(c(O)c7c(=O)cc8oc2c3c4c8c57)C(=O)O[C@@H](CCC)C6)C(=O)O1 [xylindein],anomaly in the fish,no anomaly was observed
